System: P12-Ichikawa
Assay: cell viability relative to DMSO control; higher = less cytotoxic
Settings: 48 h
How it was run: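 Before seeding, each leukemia line was adapted for at least four passages in each medium. NOMO1 or SEM cells (500 cells/well) and P12-Ichikawa cells (1000 cells/well) went into 1536-well plates at 5 μl, then received library compounds in DMSO by pin dosing across 11 threefold concentrations, 47 μM to 0.79 nM. Readout was CellTiter-Glo One luminescence after 48 h at 37°C, and viability is given as a per-plate percentage of DMSO wells, with cell-free wells as background.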

[1] = HPLM + 10% dialyzed FBS, 0.000781 µM
[2] = HPLM + 10% dialyzed FBS, 0.00234 µM
[3] = HPLM + 10% dialyzed FBS, 0.00702 µM
[4] = HPLM + 10% dialyzed FBS, 0.0211 µM
[5] = HPLM + 10% dialyzed FBS, 0.0632 µM
[6] = HPLM + 10% dialyzed FBS, 0.19 µM
[7] = HPLM + 10% dialyzed FBS, 0.569 µM
[8] = HPLM + 10% dialyzed FBS, 1.71 µM
[9] = HPLM + 10% dialyzed FBS, 5.12 µM
[10] = HPLM + 10% dialyzed FBS, 15.4 µM
[11] = HPLM + 10% dialyzed FBS, 46.1 µM
[12] = RPMI 5 mM glucose + 10% FBS, 0.000781 µM
[13] = RPMI 5 mM glucose + 10% FBS, 0.00234 µM
[14] = RPMI 5 mM glucose + 10% FBS, 0.00702 µM
[15] = RPMI 5 mM glucose + 10% FBS, 0.0211 µM
[16] = RPMI 5 mM glucose + 10% FBS, 0.0632 µM
[17] = RPMI 5 mM glucose + 10% FBS, 0.19 µM
[18] = RPMI 5 mM glucose + 10% FBS, 0.569 µM
[19] = RPMI 5 mM glucose + 10% FBS, 1.71 µM
[20] = RPMI 5 mM glucose + 10% FBS, 5.12 µM
[21] = RPMI 5 mM glucose + 10% FBS, 15.4 µM
[22] = RPMI 5 mM glucose + 10% FBS, 46.1 µM
[23] = RPMI 5 mM glucose + 10% dialyzed FBS, 0.000781 µM
[24] = RPMI 5 mM glucose + 10% dialyzed FBS, 0.00234 µM
[25] = RPMI 5 mM glucose + 10% dialyzed FBS, 0.00702 µM
[26] = RPMI 5 mM glucose + 10% dialyzed FBS, 0.0211 µM
[27] = RPMI 5 mM glucose + 10% dialyzed FBS, 0.0632 µM
[28] = RPMI 5 mM glucose + 10% dialyzed FBS, 0.19 µM
[29] = RPMI 5 mM glucose + 10% dialyzed FBS, 0.569 µM
[30] = RPMI 5 mM glucose + 10% dialyzed FBS, 1.71 µM
[31] = RPMI 5 mM glucose + 10% dialyzed FBS, 5.12 µM
[32] = RPMI 5 mM glucose + 10% dialyzed FBS, 15.4 µM
[33] = RPMI 5 mM glucose + 10% dialyzed FBS, 46.1 µM

| SMILES | cell viability [1] [%] | cell viability [2] [%] | cell viability [3] [%] | cell viability [4] [%] | cell viability [5] [%] | cell viability [6] [%] | cell viability [7] [%] | cell viability [8] [%] | cell viability [9] [%] | cell viability [10] [%] | cell viability [11] [%] | cell viability [12] [%] | cell viability [13] [%] | cell viability [14] [%] | cell viability [15] [%] | cell viability [16] [%] | cell viability [17] [%] | cell viability [18] [%] | cell viability [19] [%] | cell viability [20] [%] | cell viability [21] [%] | cell viability [22] [%] | cell viability [23] [%] | cell viability [24] [%] | cell viability [25] [%] | cell viability [26] [%] | cell viability [27] [%] | cell viability [28] [%] | cell viability [29] [%] | cell viability [30] [%] | cell viability [31] [%] | cell viability [32] [%] | cell viability [33] [%] |
| --- | --- | --- | --- | --- | --- | --- | --- | --- | --- | --- | --- | --- | --- | --- | --- | --- | --- | --- | --- | --- | --- | --- | --- | --- | --- | --- | --- | --- | --- | --- | --- | --- | --- |
| COC(=O)Nc1nc2cc(C(=O)c3ccc(F)cc3)ccc2[nH]1 | 106 | 106 | 100 | 106 | 101 | 104 | 78.2 | 42.1 | 23 | 60.6 | 40.8 | 97 | 99.2 | 101 | 99.1 | 95.2 | 92.7 | 81.8 | 47.2 | 26.6 | 74.2 | 50 | 95.5 | 94.6 | 92.9 | 96.4 | 103 | 91.1 | 82 | 49.3 | 33.9 | 73.9 | 76.7 |
| CCc1cc2c(cc1N1CCC(N3CCOCC3)CC1)C(C)(C)c1[nH]c3cc(C#N)ccc3c1C2=O | 100 | 99.5 | 110 | 130 | 138 | 130 | 131 | 121 | 116 | 115 | 65.3 | 73.7 | 73.3 | 97.2 | 134 | 126 | 124 | 130 | 100 | 110 | 107 | 102 | 86.2 | 81.9 | 108 | 127 | 136 | 128 | 125 | 118 | 109 | 122 | 96.5 |
| CCn1c(-c2nonc2N)nc2c(C#CC(C)(C)O)ncc(OC[C@H]3CCCNC3)c21 | 91.1 | 94 | 89 | 84.1 | 73.1 | 74.6 | 69.9 | 66.3 | 65.8 | 61.4 | 58.7 | 77 | 86.2 | 76.2 | 70.6 | 53.1 | 56.4 | 46.2 | 52.7 | 45.1 | 45.9 | 46.7 | 81.2 | 87.4 | 80.5 | 77.3 | 66.5 | 66.7 | 58.9 | 56.6 | 48.8 | 50.2 | 49.9 |
| COc1ccc(C(=O)c2c(C)n(CCN3CCOCC3)c3ccccc23)cc1 | 94.2 | 104 | 101 | 95.2 | 106 | 111 | 103 | 109 | 98.3 | 111 | 111 | 89.3 | 91.1 | 95 | 100 | 97.5 | 96.7 | 101 | 113 | 84.4 | 110 | 98.9 | 96.5 | 93.2 | 99.4 | 98.2 | 99.3 | 102 | 98.4 | 93.8 | 104 | 112 | 109 |
| OC1=CC2=C(C=C1)C(=O)\C(=C(O2)\C3=CC(=C(O)C=C3)O)O | 102 | 105 | 98.2 | 91.1 | 94 | 87.7 | 89.5 | 92.4 | 86 | 82.4 | 44 | 94.1 | 94.7 | 97.5 | 87 | 91.2 | 96.5 | 88.8 | 85.5 | 86 | 88.1 | 32.2 | 86.5 | 91.1 | 88 | 87.2 | 97.6 | 88.1 | 85 | 84.8 | 90.4 | 79.7 | 32.5 |
| O=S(=O)([O-])CCS.[Na+] | 109 | 122 | 125 | 119 | 127 | 126 | 126 | 129 | 30.8 | 18.1 | 15.3 | 100 | 114 | 116 | 118 | 132 | 121 | 136 | 134 | 37 | 18.5 | 16.7 | 114 | 121 | 121 | 120 | 130 | 131 | 135 | 139 | 80.8 | 43.2 | 20.1 |
| N[C@H]2CN(CC12CC1)c3c(F)cc4c(c3Cl)[N@@](C=C(C4=O)C(=O)O)C5C[C@H]5F (stereo partly specified) | 97.7 | 91.2 | 101 | 87.6 | 96.6 | 89.8 | 87.3 | 96.1 | 88.8 | 85.4 | 89.9 | 79.9 | 91 | 88.8 | 90.4 | 85.8 | 94.5 | 83 | 82.9 | 95 | 83.5 | 86.1 | 80.7 | 84.8 | 86 | 88.3 | 82.5 | 85.2 | 80.9 | 78 | 84.2 | 77.7 | 81.3 |
| COc1ccc(OC)c(-c2nnc3ccc(-c4ccc(OC)c(O[C@@H]5CCOC5)c4)nn23)c1 | 119 | 118 | 118 | 126 | 136 | 117 | 126 | 132 | 128 | 124 | 105 |  |  |  |  |  |  |  |  |  |  |  |  |  |  |  |  |  |  |  |  |  |  |
| NC(=O)Nc1sc(-c2ccc(F)cc2)cc1C(N)=O | 113 | 115 | 116 | 108 | 114 | 111 | 104 | 105 | 83.4 | 67.3 | 24.3 | 113 | 114 | 111 | 110 | 105 | 119 | 106 | 106 | 83.9 | 64.6 | 22.1 | 118 | 119 | 117 | 110 | 115 | 112 | 110 | 97.3 | 82.4 | 70.2 | 27.3 |
| CCN(CCO)CCCOc1ccc2c(Nc3cc(CC(=O)Nc4cccc(F)c4)[nH]n3)ncnc2c1 | 99.6 | 99.8 | 107 | 109 | 104 | 43.9 | 11.6 | 10.8 | 9.25 | 9.18 | 10.6 | 102 | 110 | 115 | 117 | 108 | 45.4 | 16.7 | 14.1 | 11 | 10.5 | 16.3 | 102 | 112 | 111 | 111 | 114 | 68.6 | 20.7 | 21 | 21.1 | 18.5 | 26.9 |
| C[C@H](CCC(=O)O)[C@H]1CCC2C3C[C@H](O)[C@@H]4C[C@H](O)CC[C@]4(C)C3CC[C@@]21C (stereo partly specified) | 106 | 113 | 101 | 112 | 126 | 115 | 97.3 | 93.7 | 107 | 96.8 | 108 | 105 | 126 | 120 | 114 | 117 | 108 | 105 | 105 | 102 | 104 | 105 | 98.7 | 108 | 103 | 103 | 108 | 97.5 | 96.9 | 98.9 | 105 | 90.4 | 94.9 |
| O=C1CCC[C@@H]2[C@H]3CCCN4CCC[C@@H](CN12)[C@@H]34 | 78.4 | 85.5 | 83.3 | 87.4 | 96.1 | 92.1 | 83.1 | 88.2 | 92.5 | 98.1 | 93.4 | 83.7 | 83.6 | 77.8 | 87.6 | 88.9 | 85.7 | 76.3 | 86 | 79.3 | 87.6 | 75.7 | 74.9 | 79 | 79.7 | 81.8 | 86.8 | 83.7 | 80.1 | 86.2 | 76.9 | 84.7 | 80.9 |
| CCOC(=O)C(C#N)C\1C2=CC(=CC=C2O\C(=C1C(=O)OCC)N)Br (stereo unspecified) | 100 | 103 | 108 | 92.8 | 103 | 103 | 99.1 | 104 | 105 | 94.6 | 75.7 | 104 | 102 | 106 | 88.5 | 106 | 117 | 103 | 102 | 97.9 | 90 | 89.4 | 101 | 99.1 | 105 | 83.9 | 94.9 | 105 | 102 | 92.7 | 101 | 95 | 80 |
| O=C(NCCCCN1CCOCC1)c1cc2ccccc2o1 | 119 | 122 | 119 | 115 | 114 | 120 | 113 | 117 | 112 | 112 | 102 | 115 | 122 | 120 | 118 | 106 | 116 | 107 | 105 | 101 | 95.5 | 101 | 123 | 128 | 123 | 131 | 118 | 120 | 115 | 108 | 116 | 110 | 108 |
| OC[C@H]1O[C@H](C[C@@H]1O)N2\C=C(F)/C(=O)NC2=O | 123 | 109 | 110 | 92.4 | 78.1 | 47.9 | 33.3 | 28.5 | 20.6 | 22.7 | 11 | 115 | 104 | 101 | 106 | 92.2 | 55.2 | 51.6 | 38.1 | 25.6 | 33.6 | 30.1 | 124 | 109 | 116 | 109 | 76.9 | 45.7 | 34.3 | 30.3 | 21.8 | 27.6 | 19.4 |
| CC[N+](CC)(CC)CCOc1cccc(OCC[N+](CC)(CC)CC)c1OCC[N+](CC)(CC)CC | 116 | 109 | 101 | 107 | 127 | 120 | 98.9 | 91.6 | 100 | 107 | 97 | 124 | 115 | 112 | 124 | 114 | 115 | 107 | 108 | 111 | 110 | 103 | 108 | 101 | 108 | 109 | 120 | 109 | 100 | 104 | 103 | 95.2 | 100 |

Source: the supplement of paper PMC11451515
